In PubChem BioAssay (NCI):
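Briefly, cells in 96-well plates were exposed to five compound concentrations for 48 h, and endpoints were estimated by linear interpolation. GI50 = concentration required for 50% inhibition of growth. TGI marks complete inhibition of growth.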

Columns and labels:
Assay in all cases: NCI anticancer screen, dose series, 48 h
[1] = test system: HCT-15 colon
[2] = test system: COLO 205 colon
[3] = test system: MCF7 breast
[4] = test system: KM12 colon
[5] = test system: K-562 leukemia
[6] = test system: SNB-75 CNS
[7] = test system: A498 renal
[8] = test system: BT-549 breast
[9] = test system: OVCAR-5 ovarian
[10] = test system: LOX IMVI melanoma
[11] = test system: CCRF-CEM leukemia
[12] = test system: SR leukemia
[13] = test system: CAKI-1 renal
[14] = test system: SK-OV-3 ovarian
[15] = test system: T-47D breast
[16] = test system: OVCAR-8 ovarian
[17] = test system: SK-MEL-28 melanoma
[18] = test system: NCI-H460 lung
[19] = test system: SF-539 CNS
[20] = test system: SF-295 CNS
[21] = test system: HCT-116 colon
[22] = test system: RXF 393 renal
[23] = test system: UACC-257 melanoma
[24] = test system: TK-10 renal
[25] = test system: SF-268 CNS
[26] = test system: MDA-MB-231 breast
[27] = test system: UACC-62 melanoma
[28] = test system: A549 NSCLC
[29] = test system: RPMI-8226 leukemia
[30] = test system: SNB-19 CNS

Cc1ccc(-c2cc(C(=O)N=Nc3c(O)[nH]c4ccc(F)cc34)c3ccccc3n2)cc1
GI50 [1]: 2.39 µM | TGI [1]: 15.3 µM | GI50 [2]: 15.7 µM | TGI [2]: 34.5 µM | GI50 [3]: 4.6 µM | TGI [3]: 23 µM | GI50 [4]: 12.5 µM | TGI [4]: 56 µM | GI50 [5]: 4.27 µM | TGI [5]: > 100 µM | GI50 [6]: 10.5 µM | TGI [6]: 33.3 µM | GI50 [7]: 19 µM | TGI [7]: 34.1 µM | GI50 [8]: 10.7 µM | TGI [8]: 25.7 µM | GI50 [9]: 10.2 µM | TGI [9]: 23.9 µM | GI50 [10]: 4.1 µM | TGI [10]: 16.6 µM | GI50 [11]: 2.11 µM | TGI [11]: > 100 µM | GI50 [12]: 8.17 µM | TGI [12]: > 100 µM | GI50 [13]: 12.2 µM | TGI [13]: 27.3 µM | GI50 [14]: 18.9 µM | TGI [14]: 38.5 µM | GI50 [15]: 11 µM | TGI [15]: 54.2 µM | GI50 [16]: 4.72 µM | TGI [16]: 33.2 µM | GI50 [17]: 10.2 µM | TGI [17]: 22.3 µM | GI50 [18]: 3.96 µM | TGI [18]: 19.8 µM | GI50 [19]: 2.64 µM | TGI [19]: 8.66 µM | GI50 [20]: 11.4 µM | TGI [20]: 26.1 µM | GI50 [21]: 3.36 µM | TGI [21]: 13.8 µM | GI50 [22]: 7.77 µM | TGI [22]: 22.5 µM | GI50 [23]: 16.7 µM | TGI [23]: 33.5 µM | GI50 [24]: 19.6 µM | TGI [24]: 36.1 µM | GI50 [25]: 8.11 µM | TGI [25]: 49.5 µM | GI50 [26]: 3.42 µM | TGI [26]: 13.6 µM | GI50 [27]: 9.81 µM | TGI [27]: 22.7 µM | GI50 [28]: 5.21 µM | TGI [28]: 22.6 µM | GI50 [29]: 10.6 µM | TGI [29]: > 100 µM | GI50 [30]: 17.3 µM
